{"source": "ChEMBL document CHEMBL2074288", "about": "(Eur J Pharmacol, 2004)", "key": {"[1]": {"target": "T1, Organic anion transporter 3 (Homo sapiens, UniProt Q8TCC7)", "T1 sequence (Q8TCC7 whole entry)": "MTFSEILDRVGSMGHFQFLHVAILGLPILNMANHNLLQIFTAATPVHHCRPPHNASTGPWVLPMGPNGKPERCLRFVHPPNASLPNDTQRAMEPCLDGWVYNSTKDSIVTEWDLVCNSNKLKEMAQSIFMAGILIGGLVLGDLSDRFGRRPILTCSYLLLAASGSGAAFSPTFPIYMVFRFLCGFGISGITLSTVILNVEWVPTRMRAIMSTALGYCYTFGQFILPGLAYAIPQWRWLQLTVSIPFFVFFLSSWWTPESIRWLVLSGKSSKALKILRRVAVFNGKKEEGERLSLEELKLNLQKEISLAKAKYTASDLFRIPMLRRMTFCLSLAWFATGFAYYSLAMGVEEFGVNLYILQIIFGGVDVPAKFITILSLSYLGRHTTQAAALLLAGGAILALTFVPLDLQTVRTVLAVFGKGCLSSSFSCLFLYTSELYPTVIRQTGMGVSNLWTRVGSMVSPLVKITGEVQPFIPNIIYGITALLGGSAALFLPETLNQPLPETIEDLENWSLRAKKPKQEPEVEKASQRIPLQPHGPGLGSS", "test": "TP_TRANSPORTER: inhibition of E1S uptake in OAT3 expressing oocytes"}, "[2]": {"target": "T2, Solute carrier family 22 member 2 (Homo sapiens, UniProt O15244)", "T2 sequence (O15244 whole entry)": "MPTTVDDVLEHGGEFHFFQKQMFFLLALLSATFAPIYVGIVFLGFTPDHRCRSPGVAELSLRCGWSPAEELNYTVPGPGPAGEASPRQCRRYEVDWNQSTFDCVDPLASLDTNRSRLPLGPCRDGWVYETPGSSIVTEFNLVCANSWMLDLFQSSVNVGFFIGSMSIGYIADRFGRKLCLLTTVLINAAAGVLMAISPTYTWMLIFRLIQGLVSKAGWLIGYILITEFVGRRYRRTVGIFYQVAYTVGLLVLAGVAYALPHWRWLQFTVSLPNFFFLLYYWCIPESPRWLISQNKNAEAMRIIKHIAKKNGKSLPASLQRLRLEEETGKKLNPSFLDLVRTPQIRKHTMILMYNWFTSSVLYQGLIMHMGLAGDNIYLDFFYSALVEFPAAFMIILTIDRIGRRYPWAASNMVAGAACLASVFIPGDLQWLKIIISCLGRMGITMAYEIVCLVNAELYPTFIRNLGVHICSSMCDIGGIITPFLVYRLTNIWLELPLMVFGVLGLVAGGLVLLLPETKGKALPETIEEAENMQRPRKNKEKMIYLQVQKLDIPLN", "test": "TP_TRANSPORTER: inhibition of TEA uptake in OCT2 expressing oocytes"}}, "data": [{"smiles": "CN/C(=N/CCSCc1nc[nH]c1C)NC#N", "note": "[CIMETIDINE]", "values": [{"measurement": "Ki", "setting": "[1]", "result": 53, "unit": "µM"}, {"measurement": "Ki", "setting": "[2]", "result": 57, "unit": "µM"}]}, {"smiles": "NC(N)=Nc1nc(CSCCC(N)=NS(N)(=O)=O)cs1", "note": "[FAMOTIDINE]", "values": [{"measurement": "Ki", "setting": "[1]", "result": 300, "unit": "µM"}, {"measurement": "Ki", "setting": "[2]", "result": 1800, "unit": "µM"}]}]}
